From patent publication US20250026743A1, “HETEROARYL-LINKED ANALOGS AS MGLU5 NEGATIVE ALLOSTERIC MODULATORS AND METHODS OF MAKING AND USING THE SAME” (Vanderbilt University, priority 2021, published 2025)
Read-outs that look alike come from different tables or passages of the source. One block for each compound: values may come before it.

Molecular target: T1, hmGlu5 (Homo sapiens, UniProt P41594)
T1 construct: expressed in transfected cells; host or cells: HEK 293A
Test: mGlu5 Ca2+ flux assay in HEK 293A cells (negative allosteric modulation of glutamate EC80 response)
Format: cell-based
Conditions: for remaining activity at 30 µM: HEK293-A, read-out: hmGlu5 NAM Emin (%); for IC50: HEK 293A cells, Ca2+ flux, glutamate EC80, >10,000 = decrease without plateau, read-out: hmGlu5 NAM IC50
Procedure: HEK 293A cells stably expressing either rat or human mGlu5 were plated in black-walled, clear-bottomed, poly-D-lysine coated 384-well plates in 20 μL of assay medium (DMEM containing 10% dialyzed FBS, 20 mM HEPES, 100 units/mL penicillin/streptomycin plus 250 ng/mL Fungizone, and 1 mM sodium pyruvate) at a density of 20K cells/well. The cells were grown overnight at 37° C. in the presence of 5% CO2. The next day, medium was removed and the cells incubated with 20 μL of 2.3 μM Fluo-4, AM prepared as a 2.3 mM stock in DMSO and mixed in a 1:1 ratio with 10% (w/v) pluronic acid F-127 and diluted in assay buffer (Hank's balanced salt solution, 20 mM HEPES, and 2.5 mM probenecid) for 45 minutes at 37° C. Dye was removed, 20 μL of assay buffer was added, and the plate was incubated for 5 minutes at room temperature.
Ca^2+ flux was measured using the Functional Drug Screening System (FDSS7000, Hamamatsu, Japan). After establishment of a fluorescence baseline for about 3 seconds, the compounds of the present invention were added to the cells, and the response in cells was measured. 2.3 minutes later an EC20 concentration of the mGlu5 receptor agonist glutamate was added to the cells, and the response of the cells was measured for 1.9 minutes; an EC80 concentration of agonist was added and readings taken for an additional 1.7 minutes. All test compounds were dissolved and diluted to a concentration of 10 mM in 100% DMSO. Compounds were then serially diluted 1:3 in DMSO into 10 point concentration response curves, transferred to daughter plates, and further diluted into assay buffer to a 2× stock. Calcium fluorescence measures were recorded as fold over basal fluorescence; raw data was then normalized to the maximal response to glutamate. Antagonism of the agonist response of the mGlu5 receptor in the present invention was observed as a decrease in response to nearly maximal concentrations of glutamate in the presence of compound compared to the response to glutamate in the absence of compound.
The raw data file containing all time points was used as the data source in the analysis template. This was saved by the FDSS as a tab-delimited text file. Data were normalized using a static ratio function (F/F0) for each measurement of the total 360 values per well divided by each well's initial value. Data were then reduced to peak amplitudes (Max−Initial Min) using a time range that starts approximately 3 seconds prior to the glutamate EC20/EC80 addition and continues for approximately 90-120 seconds. This is sufficient time to capture the peak amplitude of the cellular calcium response. Individual amplitudes were expressed as % EMax by multiplying each amplitude by 100 and then dividing the product by the mean of the amplitudes derived from the glutamate ECMax-treated wells. IC50 values for test compounds were generated by fitting the normalized values versus the log of the test compound concentration (in mol/L) using a 4 parameter logistic equation where none of the parameters were fixed. Each of the three values collected at each concentration of test compound were weighted evenly.
For NAMs with a CRC that plateaus above 10% Glu Max, the IC50 values are reported, the compound is designated a “partial NAM” and the % Glu Max is reported. […] Compounds without measurable activity are designated as “>30,000 nM” since the top concentration of compound tested in the assay is 30 μM. […]

T1 sequence (P41594 21-1212): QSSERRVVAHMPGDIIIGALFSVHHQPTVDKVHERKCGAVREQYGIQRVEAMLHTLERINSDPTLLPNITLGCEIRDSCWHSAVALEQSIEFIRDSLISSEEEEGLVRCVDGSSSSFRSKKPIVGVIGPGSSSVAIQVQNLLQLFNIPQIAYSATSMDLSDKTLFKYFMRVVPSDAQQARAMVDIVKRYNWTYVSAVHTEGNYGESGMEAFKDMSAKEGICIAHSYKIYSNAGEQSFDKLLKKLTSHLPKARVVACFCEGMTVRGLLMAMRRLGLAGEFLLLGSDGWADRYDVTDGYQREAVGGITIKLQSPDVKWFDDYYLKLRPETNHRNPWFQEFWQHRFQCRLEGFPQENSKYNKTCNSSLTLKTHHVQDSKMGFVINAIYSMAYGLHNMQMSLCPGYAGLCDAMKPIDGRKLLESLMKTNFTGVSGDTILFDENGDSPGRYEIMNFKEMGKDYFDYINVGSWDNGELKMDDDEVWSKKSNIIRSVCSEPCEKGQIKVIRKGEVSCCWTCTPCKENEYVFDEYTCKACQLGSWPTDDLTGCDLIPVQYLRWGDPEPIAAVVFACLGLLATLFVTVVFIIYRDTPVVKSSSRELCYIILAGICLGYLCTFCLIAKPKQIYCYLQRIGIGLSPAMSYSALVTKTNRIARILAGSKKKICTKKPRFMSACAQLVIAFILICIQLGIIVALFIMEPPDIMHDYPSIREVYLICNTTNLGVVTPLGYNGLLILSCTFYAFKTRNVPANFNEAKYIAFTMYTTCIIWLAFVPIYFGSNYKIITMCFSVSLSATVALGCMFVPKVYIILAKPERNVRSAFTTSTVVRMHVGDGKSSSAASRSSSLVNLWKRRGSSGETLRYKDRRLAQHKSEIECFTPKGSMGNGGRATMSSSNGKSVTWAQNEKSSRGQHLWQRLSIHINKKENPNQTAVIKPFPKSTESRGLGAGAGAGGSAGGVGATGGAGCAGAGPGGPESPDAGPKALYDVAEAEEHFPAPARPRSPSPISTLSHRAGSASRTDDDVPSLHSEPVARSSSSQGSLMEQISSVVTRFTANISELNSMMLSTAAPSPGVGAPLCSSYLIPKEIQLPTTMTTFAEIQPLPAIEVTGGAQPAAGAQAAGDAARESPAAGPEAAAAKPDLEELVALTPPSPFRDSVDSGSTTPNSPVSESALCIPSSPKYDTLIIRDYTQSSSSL

SMILES: Cc1ccncc1-c1cc(-c2nc(-c3ccc(F)cn3)no2)nc(C)c1F [Compound 8, 5-(5′-fluoro-4,6′-dimethyl-[3,4′-bipyridin]-2′-yl)-3-(5-fluoropyridin-2-yl)-1,2,4-oxadiazole]
remaining activity at 30 µM (% Glu max at 30 μM): 2%
IC50: 124 nM

SMILES: COc1c(-c2cnccc2C)cc(-c2noc(-c3ccc(F)cn3)n2)nc1C [Compound 10, 5-(5-fluoropyridin-2-yl)-3-(5′-methoxy-4,6′-dimethyl-[3,4′-bipyridin]-2′-yl)-1,2,4-oxadiazole]
remaining activity at 30 µM (% Glu max at 30 μM): 2%
IC50: 641 nM

SMILES: Cc1nc(-c2nnc(-c3ccc(F)cc3)o2)cc(-c2cncc(F)c2)c1F [Compound 82, 2-(5,5′-difluoro-6′-methyl-[3,4′-bipyridin]-2′-yl)-5-(4-fluorophenyl)-1,3,4-oxadiazole]
remaining activity at 30 µM: 2%
IC50: 778 nM

SMILES: Cc1nc(-c2nnc(-c3ccc(F)cn3)o2)cc(-c2cncc(F)c2)c1F [Compound 43, 2-(5,5′-difluoro-6′-methyl-[3,4′-bipyridin]-2′-yl)-5-(5-fluoropyridin-2-yl)-1,3,4-oxadiazole]
remaining activity at 30 µM: 2%
IC50: 179 nM

SMILES: Cc1nc(-c2noc(-c3ccc(F)cn3)n2)cc(-c2cncc(F)c2)c1F [Compound 6, 3-(5,5′-difluoro-6′-methyl-[3,4′-bipyridin]-2′-yl)-5-(5-fluoropyridin-2-yl)-1,2,4-oxadiazole]
remaining activity at 30 µM (% Glu max at 30 μM): 2%
IC50: 59 nM

SMILES: COCCOc1c(-c2cncc(F)c2)cc(-c2noc(-c3ccc(F)cn3)n2)nc1C [Compound 54, 3-(5-fluoro-5′-(2-methoxyethoxy)-6′-methyl-[3,4′-bipyridin]-2′-yl)-5-(5-fluoropyridin-2-yl)-1,2,4-oxadiazole]
remaining activity at 30 µM (% Glu max at 30 μM): 3%
IC50: 562 nM

SMILES: Cc1nc(-c2noc(-c3ccc(F)cn3)n2)cc(-c2cnn(C(F)F)c2)c1F [Compound 7, 3-(4-(1-(difluoromethyl)-1H-pyrazol-4-yl)-5-fluoro-6-methylpyridin-2-yl)-5-(5-fluoropyridin-2-yl)-1,2,4-oxadiazole]
remaining activity at 30 µM (% Glu max at 30 μM): 2%
IC50: 159 nM

SMILES: Cc1ccncc1-c1cc(-c2noc(-c3ccccn3)n2)nc(C)c1F [Compound 19, 3-(5′-fluoro-4,6′-dimethyl-[3,4′-bipyridin]-2′-yl)-5-(pyridin-2-yl)-1,2,4-oxadiazole]
remaining activity at 30 µM (% Glu max at 30 μM): 2%
IC50: 233 nM

SMILES: CCn1cc(-c2cc(-c3noc(-c4nc(C)cs4)n3)nc(C)c2F)cn1 [Compound 17, 3-(4-(1-ethyl-1H-pyrazol-4-yl)-5-fluoro-6-methylpyridin-2-yl)-5-(4-methylthiazol-2-yl)-1,2,4-oxadiazole]
remaining activity at 30 µM (% Glu max at 30 μM): 25%
IC50: > 10000 nM

SMILES: Cc1nc(-c2noc(-c3ccc(F)cn3)n2)cc(-c2ccc(Cl)nc2)c1F [Compound 34, 3-(6-chloro-5′-fluoro-6′-methyl-[3,4′-bipyridin]-2′-yl)-5-(5-fluoropyridin-2-yl)-1,2,4-oxadiazole]
remaining activity at 30 µM (% Glu max at 30 μM): 8%
IC50: 577 nM

SMILES: Cc1nc(-c2noc(-c3cccc(Cl)c3)n2)cc(-c2cncc(F)c2)c1F [Compound 44, 5-(3-chlorophenyl)-3-(5,5′-difluoro-6′-methyl-[3,4′-bipyridin]-2′-yl)-1,2,4-oxadiazole]
remaining activity at 30 µM: 34%
IC50: 5800 nM

SMILES: Cc1nc(-c2noc(-c3ccc(F)cn3)n2)cc(-c2cc(F)cnc2Cl)c1F [Compound 32, 3-(2-chloro-5,5′-difluoro-6′-methyl-[3,4′-bipyridin]-2′-yl)-5-(5-fluoropyridin-2-yl)-1,2,4-oxadiazole]
remaining activity at 30 µM (% Glu max at 30 μM): 3%
IC50: 359 nM

SMILES: COc1c(-c2cnn(C(F)F)c2)cc(-c2noc(-c3ccc(F)cn3)n2)nc1C [Compound 12, 3-(4-(1-(difluoromethyl)-1H-pyrazol-4-yl)-5-methoxy-6-methylpyridin-2-yl)-5-(5-fluoropyridin-2-yl)-1,2,4-oxadiazole]
remaining activity at 30 µM (% Glu max at 30 μM): 2%
IC50: 1110 nM

SMILES: Cc1ccncc1-c1cc(-c2nc(-c3ccc(F)cn3)no2)ncc1F [Compound 4, 5-(5′-fluoro-4-methyl-[3,4′-bipyridin]-2′-yl)-3-(5-fluoropyridin-2-yl)-1,2,4-oxadiazole]
remaining activity at 30 µM (% Glu max at 30 μM): 1%
IC50: 166 nM

Second part, the compound after the results:

remaining activity at 30 µM (% Glu max at 30 μM): 1%
IC50: 82 nM
SMILES: Cc1nc(-c2n[nH]c(-c3ccccc3F)n2)cc(-c2cncc(F)c2)c1F [Compound 98, 3′,5-difluoro-6′-(5-(2-fluorophenyl)-1H-1,2,4-triazol-3-yl)-2′-methyl-3,4′-bipyridine]

remaining activity at 30 µM (% Glu max at 30 μM): 3%
IC50: 109 nM
SMILES: Cc1nc(-c2noc(-c3ccc(F)cn3)n2)cc(-c2cnccc2Cl)c1F [Compound 69, 3-(4-chloro-5′-fluoro-6′-methyl-[3,4′-bipyridin]-2′-yl)-5-(5-fluoropyridin-2-yl)-1,2,4-oxadiazole]

remaining activity at 30 µM (% Glu max at 30 μM): 3%
IC50: 3600 nM
SMILES: Cc1ccncc1-c1cc(-c2noc(C(F)c3ccccc3)n2)nc(C)c1F (stereo not shown) [Compound 89, 5-(fluoro(phenyl)methyl)-3-(5′-fluoro-4,6′-dimethyl-[3,4′-bipyridin]-2′-yl)-1,2,4-oxadiazole]

remaining activity at 30 µM (% Glu max at 30 μM): 2%
IC50: 66 nM
SMILES: COc1cc(C#N)cc(-c2cc(-c3nnc(-c4ccc(F)cn4)o3)nc(C)c2F)c1 [Compound 109, 3-(3-fluoro-6-(5-(5-fluoropyridin-2-yl)-1,3,4-oxadiazol-2-yl)-2-methylpyridin-4-yl)-5-methoxybenzonitrile]

remaining activity at 30 µM (% Glu max at 30 μM): 2%
IC50: 336 nM
SMILES: COc1cncc(-c2cc(-c3nnc(-c4ccc(F)cn4)o3)nc(C)c2F)c1 [Compound 107, 2-(5′-fluoro-5-methoxy-6′-methyl-[3,4′-bipyridin]-2′-yl)-5-(5-fluoropyridin-2-yl)-1,3,4-oxadiazole]

remaining activity at 30 µM (% Glu max at 30 μM): 1%
IC50: 766 nM
SMILES: Cc1cc(CC2CCOC2)cc(-c2noc(-c3ccc(F)cn3)n2)n1 (stereo not shown) [Compound 86, 5-(5-fluoropyridin-2-yl)-3-(6-methyl-4-((tetrahydrofuran-3-yl)methyl)pyridin-2-yl)-1,2,4-oxadiazole]

remaining activity at 30 µM (% Glu max at 30 μM): 4%
IC50: 51 nM
SMILES: Cc1nc(-c2nc(-c3ccc(F)cn3)no2)cc(-c2cncc(F)c2)c1F [Compound 59, 5-(5,5′-difluoro-6′-methyl-[3,4′-bipyridin]-2′-yl)-3-(5-fluoropyridin-2-yl)-1,2,4-oxadiazole]

remaining activity at 30 µM (% Glu max at 30 μM): 2%
IC50: 46 nM
SMILES: Cc1cc(O[C@@H]2CCOC2)cc(-c2noc(-c3ccccn3)n2)n1 [Compound 113, (R)-3-(6-methyl-4-((tetrahydrofuran-3-yl)oxy)pyridin-2-yl)-5-(pyridin-2-yl)-1,2,4-oxadiazole]

remaining activity at 30 µM (% Glu max at 30 μM): 37%
IC50: > 10000 nM
SMILES: Cc1ccncc1-c1cc(-c2noc(-c3cnccn3)n2)nc(C)c1F [Compound 94, 3-(5′-fluoro-4,6′-dimethyl-[3,4′-bipyridin]-2′-yl)-5-(pyrazin-2-yl)-1,2,4-oxadiazole]

remaining activity at 30 µM (% Glu max at 30 μM): 39%
IC50: > 10000 nM
SMILES: Cc1ccc(-c2nc(-c3cc(-c4cnccc4C)c(F)c(C)n3)no2)nc1 [Compound 64, 3-(5′-fluoro-4,6′-dimethyl-[3,4′-bipyridin]-2′-yl)-5-(5-methylpyridin-2-yl)-1,2,4-oxadiazole]

remaining activity at 30 µM (% Glu max at 30 μM): 2%
IC50: 663 nM
SMILES: COc1c(-c2cncc(F)c2)cc(-c2n[nH]c(-c3ccc(F)cc3)n2)nc1C [Compound 102, 5-fluoro-6′-(5-(4-fluorophenyl)-1H-1,2,4-triazol-3-yl)-3′-methoxy-2′-methyl-3,4′-bipyridine]

remaining activity at 30 µM (% Glu max at 30 μM): 9%
IC50: 1890 nM
SMILES: Cc1cc(F)nc(-c2cc(-c3noc(-c4ccc(F)cn4)n3)nc(C)c2F)c1 [Compound 66, 3-(5′,6-difluoro-4,6′-dimethyl-[2,4′-bipyridin]-2′-yl)-5-(5-fluoropyridin-2-yl)-1,2,4-oxadiazole]
